In PMC6200766, “Fisetin targets YB-1/RSK axis independent of its effect on ERK signaling: insights from in vitro and in vivo melanoma models” (Scientific Reports, 2018):
Read-outs that look alike come from different tables or passages of the source.

Legend:
YB-1 = test: Western blot/immunocytochemistry of YB-1 in melanoma cells; type: cell-based, human
From the text: WM35 and A375 cells were obtained from ATCC (Manassas, VA), NCI/ADR-Res cells from NCI (Developmental Therapeutics Program, Frederick, MD) while 451Lu cells were provided by Dr. Meenhard Herlyn (Wistar Institute, PA). Authentication report was provided by ATCC and NCI for post-freeze viability, growth properties, morphology, mycoplasma contamination, species determination (cytochrome c oxidase I assay and STR analysis), sterility test and human pathogenic virus testing. Cells were frozen in aliquots in liquid nitrogen and cultured within six months. 451Lu cells were authenticated upon receipt using STR analysis and all cell lines are regularly tested for mycoplasma contamination using MycoAlert Mycoplasma Detection Kit from Lonza (Basel, Switzerland). WM35, A375 cells were cultured in DMEM, NCI/ADR-Res in RPMI and 451Lu in MEM with 10% FBS and 1% penicillin-streptomycin, at 37 °C with 5% CO2 in a humid environment. […]
For immunohistochemistry, sections from melanoma constructs, fixed in 10% formalin were deparaffinized and rehydrated in xylene and a graded series of ethanol and blocked in 2% goat serum/PBS for 30 min. After incubation with specific primary antibody overnight and biotinylated secondary antibody for 1 h, slides were counterstained with hematoxylin and immunoreactive complexes were detected using 3,3′-diaminobenzidene (Dako Corp., CA). […]

RSK = test: Western blot of RSK phosphorylation in A375 cells; type: cell-based, human; conditions: fisetin 60 µM:24 h, FR180204 10 µM
From the text: WM35 and A375 cells were obtained from ATCC (Manassas, VA), NCI/ADR-Res cells from NCI (Developmental Therapeutics Program, Frederick, MD) while 451Lu cells were provided by Dr. Meenhard Herlyn (Wistar Institute, PA). Authentication report was provided by ATCC and NCI for post-freeze viability, growth properties, morphology, mycoplasma contamination, species determination (cytochrome c oxidase I assay and STR analysis), sterility test and human pathogenic virus testing. Cells were frozen in aliquots in liquid nitrogen and cultured within six months. 451Lu cells were authenticated upon receipt using STR analysis and all cell lines are regularly tested for mycoplasma contamination using MycoAlert Mycoplasma Detection Kit from Lonza (Basel, Switzerland). WM35, A375 cells were cultured in DMEM, NCI/ADR-Res in RPMI and 451Lu in MEM with 10% FBS and 1% penicillin-streptomycin, at 37 °C with 5% CO2 in a humid environment. After treatment of cells with/without fisetin and/or inhibitors, whole cell lysates were prepared and western blot analysis was performed as described elsewhere.

RSK1 [1] = molecular target: T1, RSK1 (Homo sapiens, UniProt Q15418); test: biochemical
Description: In vitro kinase activity profiling of RSK isoforms was performed at Reaction Biology Corporation (Malvern, PA). Briefly, the specific kinase/substrate pair alongwith required cofactors was prepared in reaction buffer.
Target sequence in this assay (Q15418 whole entry, canonical isoform): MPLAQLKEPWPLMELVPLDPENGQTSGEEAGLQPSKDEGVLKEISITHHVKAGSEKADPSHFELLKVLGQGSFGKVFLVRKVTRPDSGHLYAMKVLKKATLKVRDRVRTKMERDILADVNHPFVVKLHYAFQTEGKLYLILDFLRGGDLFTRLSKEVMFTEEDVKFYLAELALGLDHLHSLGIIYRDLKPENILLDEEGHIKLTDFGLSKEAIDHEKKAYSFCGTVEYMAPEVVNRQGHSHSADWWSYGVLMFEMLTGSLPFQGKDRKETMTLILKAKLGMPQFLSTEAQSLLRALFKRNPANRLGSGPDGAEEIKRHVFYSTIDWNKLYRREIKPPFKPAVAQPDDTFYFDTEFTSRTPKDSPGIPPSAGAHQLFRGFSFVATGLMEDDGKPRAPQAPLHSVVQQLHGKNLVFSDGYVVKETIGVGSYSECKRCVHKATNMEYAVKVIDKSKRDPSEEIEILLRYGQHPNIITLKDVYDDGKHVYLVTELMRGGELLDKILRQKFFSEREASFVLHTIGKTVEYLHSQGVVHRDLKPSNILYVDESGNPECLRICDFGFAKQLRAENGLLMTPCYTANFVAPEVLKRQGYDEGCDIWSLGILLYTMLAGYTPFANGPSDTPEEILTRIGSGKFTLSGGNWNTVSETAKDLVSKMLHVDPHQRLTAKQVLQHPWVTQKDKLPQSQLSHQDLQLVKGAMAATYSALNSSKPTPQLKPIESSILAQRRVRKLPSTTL

RSK2 binding to YB-1 = molecular target: T2, RSK2 binding to YB-1 (Homo sapiens, UniProt P51812); test: SPR competition assay, RSK2 pre-incubated with fisetin over immobilized YB-1; conditions: RSK2 100 nM pre-incubated with fisetin 1 and 10 µM
T2 construct: recombinant human proteins [full length and HIS-tag]; (Life Technologies, Italy); His; purchased Life Technologies, Italy (RSK2); Abnova Corporation, Taiwan (YB-1)
Description: (§1) Binding experiments were performed using a Biacore T-200 instrument (Uppsala, Sweden) at 25 °C. 60 response units (RU) of the YB-1 human recombinant protein with GST-tag at N-terminal (51–139 aa, 35 kDa including GST tag, from Abnova Corporation, Taiwan) were directly immobilized on the EDC/NHS activated flow cell2 of the CM5 chip (GE certified) in water. The unoccupied sites were blocked with 1 M ethanol amine. The analytes RPS6KA1 (RSK1, 88.5 kDa) and RPS6KA3 (RSK2, 86.3 kDa) recombinant human proteins [full length and HIS-tag] (Life Technologies, Italy) were flown over the chip at variable concentrations in 10 mM sodium acetate buffer (pH 5.0), with flow rate of 5ul/min, at a single analyte concentration. Binding of analyte to the immobilized protein was monitored in real time to obtain on (ka) and off (kd) rates. The equilibrium constant (KD) was calculated from the observed ka and kd or by steady state kinetics as for the small molecules. Stocks were prepared in 100% DMSO, and further dilutions were made in assay buffer containing 10 mM HEPES buffer (pH 7.4), 150 mM NaCl, 3 mM EDTA, 0.05% P20 (polyoxyethylenesorbitan) and 0.1% BSA. Full kinetics analysis was performed at using analyte concentrations 50 nM (or 100 nM without BSA) to 0, run with serial dilutions, 50, 25, 12.5, 6.25, 3.125, 0 nM, and a flow rate of 30 ul/min. […]

ERK1 = ERK1 (Homo sapiens, UniProt P27361); test: Radiometric in vitro kinase activity assay; type: biochemical
ERK2 = ERK2 (Homo sapiens, UniProt P28482); test: Radiometric in vitro kinase activity assay; type: biochemical
451Lu melanoma cells = test: 451Lu melanoma xenograft in athymic nude mice; type: in vivo; conditions: day 35; fisetin 1 mg/animal i.p. thrice weekly; vemurafenib 2 mg/animal oral gavage 5 days/week; control 1179.7 mm^3
Description: Athymic (nu/nu) female nude mice (Harlan, Madison, WI), 4–5 weeks old, were housed under pathogen-free conditions, in the University of Wisconsin Animal Resource Facility, with a 12-hour light/12-hour dark schedule and fed an autoclaved diet ad libitum. All animal experiments were approved by and carried out according to Institutional Animal Care and Use Committee guidelines, University of Wisconsin-Madison, protocol # M005212. Briefly, 1 × 10^6 451Lu cells were injected s/c into each flank of 18 mice randomly divided into 3 groups. The first group received intraperitoneal injection of fisetin 40 mg/kg b.wt. (1 mg/animal) thrice weekly, the second group received vemurafenib by oral gavage 80 mg/kg b.wt. (2 mg/animal) dissolved in DMSO, 5 days/week, while the third group served as the DMSO treated control group. Mice weight and tumor volumes were recorded twice weekly. The animals were sacrificed when tumors reached a volume of 1200 mm^3 in the control group. Samples were collected and stored at −80 °C until further analysis.

NCI/ADR-Res cells = test: MTT cell viability; type: cell-based, human; conditions: NCI/ADR-Res ovarian tumor cells
Description: Cells seeded in 24-well plates were treated at 70% confluence with/without fisetin and/or vemurafenib for 24 hours. Cell viability was determined by MTT assay as described.

RSK2 [2] = molecular target: T3, RSK2 (Homo sapiens, UniProt P51812); test: Radiometric in vitro kinase activity assay (Reaction Biology); type: biochemical; design: purchased Reaction Biology Corporation (Malvern, PA), contract assay; conditions: 10-dose, 3-fold serial dilution from 100 μM; 30 μM ATP; read-out: IC50 (M), kinase activity inhibition RSK2
Target sequence in this assay (P51812 whole entry): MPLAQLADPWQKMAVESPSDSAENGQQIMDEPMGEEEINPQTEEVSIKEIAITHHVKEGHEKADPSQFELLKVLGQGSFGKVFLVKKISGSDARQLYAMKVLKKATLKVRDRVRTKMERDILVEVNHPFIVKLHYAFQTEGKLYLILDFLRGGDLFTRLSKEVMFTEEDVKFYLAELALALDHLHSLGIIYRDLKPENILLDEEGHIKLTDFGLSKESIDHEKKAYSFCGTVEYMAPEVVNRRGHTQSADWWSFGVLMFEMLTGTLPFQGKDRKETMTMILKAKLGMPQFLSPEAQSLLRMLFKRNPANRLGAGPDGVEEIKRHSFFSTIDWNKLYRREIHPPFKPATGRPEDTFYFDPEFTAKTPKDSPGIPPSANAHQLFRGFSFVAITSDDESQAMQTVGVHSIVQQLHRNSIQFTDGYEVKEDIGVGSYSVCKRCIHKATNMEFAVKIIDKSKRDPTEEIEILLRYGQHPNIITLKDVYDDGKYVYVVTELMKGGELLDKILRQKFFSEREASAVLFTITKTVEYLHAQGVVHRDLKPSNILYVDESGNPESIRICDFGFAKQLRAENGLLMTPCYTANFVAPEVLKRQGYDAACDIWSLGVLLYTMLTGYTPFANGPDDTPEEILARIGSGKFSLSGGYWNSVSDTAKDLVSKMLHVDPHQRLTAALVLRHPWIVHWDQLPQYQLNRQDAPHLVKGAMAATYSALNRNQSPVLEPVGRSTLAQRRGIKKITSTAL

RSK3 [3] = molecular target: T4, RSK3 (Homo sapiens, UniProt Q15349); test: as above; type: biochemical; design: purchased Reaction Biology Corporation (Malvern, PA), contract assay; conditions: 10-dose, 3-fold serial dilution from 100 μM; 30 μM ATP; read-out: IC50 (M), kinase activity inhibition RSK3
Target sequence in this assay (Q15349 whole entry): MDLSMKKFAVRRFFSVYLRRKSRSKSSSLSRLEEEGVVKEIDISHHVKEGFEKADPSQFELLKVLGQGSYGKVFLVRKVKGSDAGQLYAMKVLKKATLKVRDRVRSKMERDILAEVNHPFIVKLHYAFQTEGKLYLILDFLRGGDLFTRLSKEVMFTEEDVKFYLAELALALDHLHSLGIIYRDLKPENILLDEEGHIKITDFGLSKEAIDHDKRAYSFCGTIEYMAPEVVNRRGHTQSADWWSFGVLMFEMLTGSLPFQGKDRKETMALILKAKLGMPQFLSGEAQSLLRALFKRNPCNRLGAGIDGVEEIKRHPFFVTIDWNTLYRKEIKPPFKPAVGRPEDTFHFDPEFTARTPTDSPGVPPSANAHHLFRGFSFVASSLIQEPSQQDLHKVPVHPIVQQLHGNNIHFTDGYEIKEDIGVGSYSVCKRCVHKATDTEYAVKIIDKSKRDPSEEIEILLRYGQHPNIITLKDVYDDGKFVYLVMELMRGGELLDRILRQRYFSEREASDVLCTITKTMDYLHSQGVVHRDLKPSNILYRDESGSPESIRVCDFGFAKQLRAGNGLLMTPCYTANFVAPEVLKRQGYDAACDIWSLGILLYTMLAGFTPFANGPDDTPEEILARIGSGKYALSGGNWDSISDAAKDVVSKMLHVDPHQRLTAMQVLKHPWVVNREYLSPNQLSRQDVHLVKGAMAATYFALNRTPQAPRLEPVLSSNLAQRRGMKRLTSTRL

RSK2 [4] = molecular target: T3, RSK2; test: KINOMEscan competition binding assay; design: purchased KINOMEscan screening platform (San Diego, CA), contract assay
Description: (§2) The KINOMEscan screening platform (San Diego, CA) was employed to quantitatively measure interactions between fisetin and RSK isoforms. Binding constants (Kds) were calculated by measuring the amount of kinase captured on solid support as a function of the test compound concentration, using the Hill equation. The Hill Slope was set to −1. Curves were fitted using a non-linear least square fit with the Levenberg-Marquardt algorithm.

RSK1 [5] = molecular target: T1, RSK1; test: KINOMEscan competition binding assay; design: RSK1 (Kinase Domain 1-N-terminal): Average Kd (nM): 8100; RSK1 (Kinase Domain 2-C-terminal): Average Kd (nM): 2500; purchased KINOMEscan screening platform (San Diego, CA), contract assay; conditions: duplicate, top concentration 100 µM
Description: as §2

RSK3 [6] = molecular target: T4, RSK3; test: KINOMEscan competition binding assay; design: RSK3 (Kinase Domain 1-N-terminal): Average Kd (nM): 5200; RSK3 (Kinase Domain 2-C-terminal): Average Kd (nM): 5800; purchased KINOMEscan screening platform (San Diego, CA), contract assay; conditions: duplicate, top concentration 100 µM
Description: as §2

[7] = molecular target: T5, YB-1 human recombinant protein (Homo sapiens, UniProt P67809); test: SPR (Biacore) full kinetics, RSK analytes over immobilized YB-1; conditions: without BSA; analyte 100-0 nM; 25 °C; read-out: KD for binding to immobilized YB-1
T5 construct: (51–139 aa, 35 kDa including GST tag, from Abnova Corporation, Taiwan); purchased Abnova Corporation, Taiwan
Description: as §1

Sequence of ERK2 (P28482 whole entry): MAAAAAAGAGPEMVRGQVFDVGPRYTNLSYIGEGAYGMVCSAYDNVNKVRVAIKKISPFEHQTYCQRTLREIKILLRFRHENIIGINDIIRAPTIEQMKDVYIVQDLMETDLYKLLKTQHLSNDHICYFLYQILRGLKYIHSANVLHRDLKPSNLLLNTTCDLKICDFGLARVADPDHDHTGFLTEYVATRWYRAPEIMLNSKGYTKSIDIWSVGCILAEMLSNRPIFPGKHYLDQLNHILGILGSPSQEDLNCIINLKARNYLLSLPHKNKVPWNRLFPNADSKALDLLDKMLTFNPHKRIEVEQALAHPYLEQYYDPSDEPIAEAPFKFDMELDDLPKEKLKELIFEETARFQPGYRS
T2 sequence (P51812 whole entry): as the sequence (P51812 whole entry) above
T5 sequence (P67809 51-139): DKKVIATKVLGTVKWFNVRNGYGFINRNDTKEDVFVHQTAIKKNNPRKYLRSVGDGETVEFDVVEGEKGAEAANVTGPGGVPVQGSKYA
Sequence of ERK1 (P27361 whole entry): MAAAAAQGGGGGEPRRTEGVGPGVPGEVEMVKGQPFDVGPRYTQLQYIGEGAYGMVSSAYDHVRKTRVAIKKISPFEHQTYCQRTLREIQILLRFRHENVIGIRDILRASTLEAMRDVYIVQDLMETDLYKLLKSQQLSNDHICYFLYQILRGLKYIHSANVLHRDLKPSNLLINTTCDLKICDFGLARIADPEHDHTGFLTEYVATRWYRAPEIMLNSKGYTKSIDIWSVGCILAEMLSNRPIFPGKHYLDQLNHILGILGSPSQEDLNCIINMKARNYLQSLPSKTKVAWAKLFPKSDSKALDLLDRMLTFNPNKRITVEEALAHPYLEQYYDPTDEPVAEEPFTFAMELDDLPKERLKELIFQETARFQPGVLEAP

`CC(C)CCN1c2nc(Nc3cc(F)c(O)c(F)c3)ncc2N(C)C(=O)C1C` (stereo not drawn) [BI-D1870, reference compound] was tested, and the YB-1 expression (YB-1; A375 cells, in comparison to fisetin (60 μM:24 h)) was “modest effect”.

In the case of `Nc1[nH]nc2nnc(-c3c(-c4ccccc4)nn4ccccc34)cc12` [FR180204, reference compound], the “RSK phosphorylation at threonine359/serine363” value (RSK) is reported as “significant decrease”.

With `O=c1c(O)c(-c2ccc(O)c(O)c2)oc2cc(O)ccc12` [Fisetin, fisetin] the IC50 (RSK1 [1]) was 3.79 µM, the “effect on binding of RSK2 to YB-1” value (RSK2 binding to YB-1) was “promote its binding to YB-1” and the IC50 (ERK1) was 8.5 µM. For the same molecule, the IC50 (ERK2) was 9.88 µM, the average tumor volume (451Lu melanoma cells) was 789.3 mm^3 and the “YB-1 phosphorylation and total protein levels” value (YB-1; A375 and 451Lu cells, 0–80 µM, 24 h) was “dose-dependent decrease in YB-1 phosphorylation”. The cell viability (NCI/ADR-Res cells) was “reduced viability”, the “RSK phosphorylation at threonine359/serine363” value (RSK) was “significant decrease” and the IC50 (RSK2 [2]) was 2.78e-06 M. The IC50 (RSK3 [3]) was 8.91e-07 M, the Kd (RSK2 [4]; C-terminal kinase domain, duplicate, top concentration 100 µM, read-out: Average Kd, RSK2 (Kinase Domain 2-C-terminal)) was 8.4 µM and the Kd (RSK2 [4]; N-terminal kinase domain, duplicate, top concentration 100 µM, read-out: Average Kd, RSK2 (Kinase Domain 1-N-terminal)) was 0.05 µM. For the same molecule, the Kd (RSK2 [4]; single replicate curve, C-terminal kinase domain, read-out: Kd, RSK2(Kin.Dom.2-C-terminal), Replicate ID = 1) was 8.1 µM, the Kd (RSK1 [5]; C-terminal kinase domain, read-out: Average Kd, RSK1 (Kinase Domain 2-C-terminal)) was 2.5 µM and the Kd (RSK1 [5]; N-terminal kinase domain, read-out: Average Kd, RSK1 (Kinase Domain 1-N-terminal)) was 8.1 µM. For the same molecule, the Kd (RSK3 [6]; C-terminal kinase domain, read-out: Average Kd, RSK3 (Kinase Domain 2-C-terminal)) was 5.8 µM and the Kd (RSK3 [6]; N-terminal kinase domain, read-out: Average Kd, RSK3 (Kinase Domain 1-N-terminal)) was 5.2 µM.

For `CCCS(=O)(=O)Nc1ccc(F)c(C(=O)c2c[nH]c3ncc(-c4ccc(Cl)cc4)cc23)c1F` [vemurafenib, reference compound], the average tumor volume (451Lu melanoma cells) was 641.7 mm^3.

For “RSK2: recombinant human protein RPS6KA3, full length, HIS-tag, 86.3 kDa; SPR analyte”, the Kd [7] was 0.534 µM.
